In patent US20110263707A1, “MOSQUITO REPELLENT” (BIO & HNT, INC., priority 2007, published 2011):
Values joined by “and” are separate entries in the source; they are usually repeats but may differ in a detail not shown here. Equal entries are not always repeated.

Test system: Aedes aegypti
Experiment: Examination of repellent activity using skin test (treated forearm in cage of mated female mosquitoes)
Type: in vivo
Details: for Effective repellency duration (average ± standard deviation): protection time until arm bitten by two cumulative mosquitoes
Description: In this embodiment, Aedes aegypti was used test mosquitoes. The Aedes aegypti was supplied from Korea Research Institute of Bioscience and Biotechnology and reared indoor from generation to generation. The larvae of the Aedes aegypti were reared in a plastic container of 22×14×7 cm containing distilled water with a one to one mixture of chicken feed and yeast. Mosquito pupae were transferred into a paper cup and then placed in a rearing cage to emerge as adults. Here, the rearing cage was constructed with metal net. Males and females of the adult mosquitoes at one to one ratio were put in a rearing cage for two or three days for mating. The female mosquitoes were then used for repellency tests. Eight percent (8%) sugar water was supplied for the adult mosquitoes. The following rearing conditions were maintained: light condition of 16 h:8 h (day:night), temperature of 27±2° C., and relative humidity of 80±10%. In order to examine effectiveness of the mosquito repellents of the prepared sample solutions, one (1) […] of a sample solution was uniformly applied, using a metal rod, on a forearm of a volunteer human test subject between a wrist and an elbow. Thereafter, the arm treated with the test solution was inserted in a bioassay cage constructed with Plexiglass of 50×50×50 cm containing approximately 100 mated female mosquitoes. The number of mosquitoes trying to bite was recorded for three minutes in every thirty minutes for up to 4 hours. The time required to get the arm bitten by two cumulative mosquitoes was regarded as effective repellency duration. A net window of 40×40 cm was present at each side and top of the Plexiglass bioassay cage to allow air ventilation. A 15×15 cm hole was prepared at the front side of the Plexiglass bioassay cage and a long net sleeve was attached to the hole so that the test arm could be put into the cage for repellency test. At the beginning of each repellency test, an arm treated with solvent only was placed in the bioassay cage containing mosquitoes, in order to examine blood feeding activity of the mated female test mosquitoes. This test with the bioassay cage was carried out only when the arm was bitten by at least two mosquitoes for initial three minutes. In Table 3 and Table 4, the repellent efficiency was calculated using the following Equation 1. [formula]

[1] = concentration 2% (0.05 mg/cm^3), 30 minutes
[2] = concentration 2% (0.05 mg/cm^3), 60 minutes
[3] = concentration 2% (0.05 mg/cm^3), 90 minutes
[4] = concentration 2% (0.05 mg/cm^3), 120 minutes
[5] = concentration 2% (0.05 mg/cm^3), 150 minutes
[6] = concentration 2% (0.05 mg/cm^3), 180 minutes
[7] = concentration 2% (0.05 mg/cm^3), 210 minutes
[8] = concentration 2% (0.05 mg/cm^3), 240 minutes
[9] = concentration 2% in 91% isopropyl alcohol (0.05 mg/cm^3)
[10] = concentration 10% (0.25 mg/cm^3), 30 minutes
[11] = concentration 10% (0.25 mg/cm^3), 60 minutes
[12] = concentration 10% (0.25 mg/cm^3), 90 minutes
[13] = concentration 10% (0.25 mg/cm^3), 120 minutes
[14] = concentration 10% (0.25 mg/cm^3), 150 minutes
[15] = concentration 10% (0.25 mg/cm^3), 180 minutes
[16] = concentration 10% (0.25 mg/cm^3), 210 minutes
[17] = concentration 10% (0.25 mg/cm^3), 240 minutes
[18] = concentration 10% in 91% isopropyl alcohol (0.25 mg/cm^3), maximum measurement time 240 minutes

Row | Structure (SMILES) | Repellent efficiency (%) per time [1] | Repellent efficiency (%) per time [2] | Repellent efficiency (%) per time [3] | Repellent efficiency (%) per time [4] | Repellent efficiency (%) per time [5] | Repellent efficiency (%) per time [6] | Repellent efficiency (%) per time [7] | Repellent efficiency (%) per time [8] | Effective repellency duration (average ± standard deviation) [9] | Repellent efficiency (%) per time [10] | Repellent efficiency (%) per time [11] | Repellent efficiency (%) per time [12] | Repellent efficiency (%) per time [13] | Repellent efficiency (%) per time [14] | Repellent efficiency (%) per time [15] | Repellent efficiency (%) per time [16] | Repellent efficiency (%) per time [17] | Effective repellency duration (average ± standard deviation) [18] | Effective repellency duration (average ± standard deviation) (concentration 2% in 91% isopropyl alcohol (0.05 mg/cm^3), listed as neric acid) | Effective repellency duration (average ± standard deviation) (concentration 10% in 91% isopropyl alcohol (0.25 mg/cm^3), maximum measurement time 240 minutes, listed as neric acid)
1 | CCN(CC)C(=O)c1cccc(C)c1 [DEET, N,N-diethyl-m-toluamide] | 100% | 0% | 0% | 0% | 0% | 0% | 0% | 0% | 70 min and 70 ± 10.0 min | 100% | 100% | 100% | 100% | 87.5% | 81.3% | 78.1% | 71.9% | 218 min and 218 ± 10.8 min |  | 
2 | CCC(C)OC(=O)N1CCCCC1CCO (centres unmarked) [Picadirin] |  |  |  |  |  |  |  |  |  | 85.0% | 85.0% | 85.0% | 80.0% | 75.0% | 72.5% | 62.5% | 47.5% | 158 min and 158 ± 27.5 min |  | 
3 | CC(C)=CCC/C(C)=C\C(=O)O [Neric acid, (Z,E)-3,7-dimethyl-2,6-octadienoic acid] | 100% | 83.1% | 70.4% | 52.1% | 39.4% | 26.8% | 18.3% | 14.1% | 106 ± 16.3 min | 100% | 100% | 100% | 100% | 100% | 100% | 100% | 95.3% | 240 ± 0 min | 106 min | 240 min
